Molecular target: tau (Homo sapiens, UniProt P10636)
Experiment: MCE Phenols Library screening, tau biosensor cell seeding assay (AvZ)
Type: cell-based
Settings: for Z repl 1 / Z Repl 2: Z score; for Z repl 1 / raw data 1: replicate 1; for Z Repl 2 / raw data 2: replicate 2; for AvZ (average z score of seeding, SDs from the mean level of seeding): 10 μM phenol in cell cultures, AD brain homogenate preincubated 16 hours, two biological replicates, positive = catalyzes seeding, negative = inhibits
[1] = average Z score of the two replicates, tau seeding
[2] = average Z score of the two replicates, MCE Phenols Library screen
[3] = average puncta of the two replicates
[4] = average Z score of two replicates, Phenols Library screen

tau, sequence (P10636 623-695 limits assumed): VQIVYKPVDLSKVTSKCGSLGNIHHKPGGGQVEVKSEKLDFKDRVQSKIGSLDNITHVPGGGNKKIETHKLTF

O=C(O)c1cc(O)c2c(c1)[C@H]([C@H]1c3cccc(O)c3C(=O)c3c(O)cc(C(=O)O)cc31)c1cccc(O)c1C2=O [Sennidin B]
Z repl 1: 0.553 | Z Repl 2: -0.073 | av Z [1]: 0.24 | av puncta (average of raw data 1 and 2): 22482.9 | raw data 1 (puncta): 32984.9 | raw data 2 (puncta): 11981

O=C(O)c1cc(O)c2c(c1)[C@H]([C@H]1c3cc(C(=O)O)cc(O)c3C(=O)c3c(O[C@@H]4O[C@H](CO)[C@@H](O)[C@H](O)[C@H]4O)cccc31)c1cccc(O[C@@H]3O[C@H](CO)[C@@H](O)[C@H](O)[C@H]3O)c1C2=O [Sennoside A]
Z repl 1: -1.043 | Z Repl 2: -0.801 | av Z [2]: -0.922 | av puncta (average of raw data 1 and 2): 9021.29 | raw data 1 (puncta): 13826.4 | raw data 2 (puncta): 4216.17

Oc1ccc2c(c1)OCO2 [Sesamol]
Z repl 1: -0.018 | Z Repl 2: -1.03 | av Z [2]: -0.524 | av puncta [3]: 13948.1 | raw data 1 (puncta): 26133.2 | raw data 2 (puncta): 1763.04

COc1cc(/C=C/C(=O)O[C@H]2[C@H](O)[C@@H](CO)O[C@@]2(CO)O[C@H]2O[C@H](CO)[C@@H](O)[C@H](O)[C@H]2O)ccc1O [Sibiricose A5]
Z repl 1: -0.765 | Z Repl 2: -0.196 | av Z [2]: -0.481 | av puncta [3]: 13916.2 | raw data 1 (puncta): 17163.5 | raw data 2 (puncta): 10668.8

COc1cc([C@@H]2Oc3c(O)cc([C@H]4Oc5cc(O)cc(O)c5C(=O)[C@@H]4O)cc3[C@H]2CO)ccc1O [Silychristin]
Z repl 1: 0.429 | Z Repl 2: -0.406 | av Z [4]: 0.012 | av puncta (average of raw data 1 and 2): 19966.5 | raw data 1 (puncta): 31503 | raw data 2 (puncta): 8429.95

COc1cc(/C=C/C=O)cc(OC)c1O [Sinapaldehyde]
AvZ (average z score of seeding, SDs from the mean level of seeding): 0.096 | Z repl 1: 0.021 | Z Repl 2: 0.172 | av puncta (average of raw data 1 and 2): 20601.9 | raw data 1 (puncta): 26603.6 | raw data 2 (puncta): 14600.1

COc1cc(/C=C/C(=O)OCC[N+](C)(C)C)cc(OC)c1O.N#C[S-] [Sinapine (thiocyanate)]
AvZ (average z score of seeding, SDs from the mean level of seeding): 0.005 | Z repl 1: 0.104 | Z Repl 2: -0.095 | av puncta (average of raw data 1 and 2): 19676.8 | raw data 1 (puncta): 27602.3 | raw data 2 (puncta): 11751.4

COc1cc(/C=C/C(=O)OCC[N+](C)(C)C)cc(OC)c1O [Sinapine]
AvZ (average z score of seeding, SDs from the mean level of seeding): -0.633 | AvZ (average z score of seeding, SDs from the mean level of seeding) (listed as sinapine): −0.633 | Z repl 1: -0.962 | Z Repl 2: -0.305 | av puncta [3]: 12156.4 | raw data 1 (puncta): 14803.5 | raw data 2 (puncta): 9509.32

COC1=C[C@@H]2[C@@H]3Cc4ccc(OC)c(O)c4[C@]2(CCN3C)CC1=O.Cl [Sinomenine hydrochloride]
Z repl 1: -0.595 | Z Repl 2: 0.066 | av Z [2]: -0.264 | av puncta [3]: 16340.1 | raw data 1 (raw puncta): 19209.2 | raw data 2 (raw puncta): 13470.9

C=C(C)[C@H](CC=C(C)C)Cc1c(O)cc(O)c2c1O[C@H](c1ccc(O)cc1O)CC2=O [Sophoraflavanone G]
Z repl 1: -0.704 | Z Repl 2: -0.412 | av Z [2]: -0.558 | av puncta [3]: 13130.1 | raw data 1 (puncta): 17897.8 | raw data 2 (puncta): 8362.49

O=c1c(O)c(-c2ccc(O[C@@H]3O[C@H](CO)[C@@H](O)[C@H](O)[C@H]3O)c(O)c2)oc2cc(O)cc(O)c12 [Spiraeoside]
Z repl 1: -1.012 | Z Repl 2: -0.12 | av Z [2]: -0.566 | av puncta [3]: 12842 | raw data 1 (puncta): 14202.4 | raw data 2 (puncta): 11481.5

COc1cc(O)c2c(=O)c3c(O[C@@H]4O[C@H](CO)[C@@H](O)[C@H](O)[C@H]4O)ccc(O)c3oc2c1 [Swertianolin]
Z repl 1: -0.114 | Z Repl 2: 0.052 | av Z [4]: -0.031 | av puncta (average of raw data 1 and 2): 19147.5 | raw data 1 (puncta): 24974.7 | raw data 2 (puncta): 13320.3

COc1cc(C=O)cc(OC)c1O [Syringaldehyde]
AvZ (average z score of seeding, SDs from the mean level of seeding): -0.318 | Z repl 1: 0.142 | Z Repl 2: -0.778 | av puncta [3]: 16255.1 | raw data 1 (raw puncta): 28055.2 | raw data 2 (raw puncta): 4454.92

COc1cc(C(=O)O)cc(OC)c1O [Syringic acid]
AvZ (average z score of seeding, SDs from the mean level of seeding): 0.082 | Z repl 1: 0.138 | Z Repl 2: 0.027 | av puncta (average of raw data 1 and 2): 20525.8 | raw data 1 (puncta): 28000.6 | raw data 2 (puncta): 13051.1

COc1ccc(-c2oc3cc(O)cc(O)c3c(=O)c2O)cc1O [Tamarixetin]
Z repl 1: -0.357 | Z Repl 2: -0.633 | av Z [2]: -0.495 | av puncta [3]: 14033.4 | raw data 1 (puncta): 22060 | raw data 2 (puncta): 6006.83

O=C(OC[C@H]1O[C@@H](OC(=O)c2cc(O)c(O)c(OC(=O)c3cc(O)c(O)c(O)c3)c2)[C@H](OC(=O)c2cc(O)c(O)c(OC(=O)c3cc(O)c(O)c(O)c3)c2)[C@@H](OC(=O)c2cc(O)c(O)c(OC(=O)c3cc(O)c(O)c(O)c3)c2)[C@@H]1OC(=O)c1cc(O)c(O)c(OC(=O)c2cc(O)c(O)c(O)c2)c1)c1cc(O)c(O)c(OC(=O)c2cc(O)c(O)c(O)c2)c1 [Tannic acid]
Z repl 1: -2.109 | Z Repl 2: -1.136 | av Z [2]: -1.623 | av puncta (average of raw data 1 and 2): 829.805 | raw data 1 (puncta): 1030.3 | raw data 2 (puncta): 629.309

COc1cc(O)c2c(=O)cc(-c3ccccc3)oc2c1 [Tectochrysin]
Z repl 1: 0.481 | Z Repl 2: -0.371 | av Z [4]: 0.055 | av puncta (average of raw data 1 and 2): 20458.8 | raw data 1 (puncta): 32119.1 | raw data 2 (puncta): 8798.38

COc1c(O)cc2occ(-c3ccc(O)cc3)c(=O)c2c1O [Tectorigenin]
Z repl 1: -0.071 | Z Repl 2: -0.055 | av Z [4]: -0.063 | av puncta (average of raw data 1 and 2): 18839.4 | raw data 1 (puncta): 25501.8 | raw data 2 (puncta): 12177

COc1cc(/C=C/C(=O)O[C@H]2[C@H](O)[C@@H](CO)O[C@@]2(CO)O[C@H]2O[C@H](COC(=O)c3ccc(O)cc3)[C@@H](O)[C@H](O)[C@H]2O)cc(OC)c1O [Tenuifoliside B]
Z repl 1: -0.53 | Z Repl 2: -0.01 | av Z [2]: -0.27 | av puncta [3]: 16324 | raw data 1 (raw puncta): 19990.7 | raw data 2 (raw puncta): 12657.2

O=C(O)Cc1cc(I)c(Oc2cc(I)c(O)c(I)c2)c(I)c1 [Tetrac]
Z repl 1: 0.158 | Z Repl 2: -0.425 | av Z [4]: -0.133 | av puncta (average of raw data 1 and 2): 18236.7 | raw data 1 (puncta): 28241.9 | raw data 2 (puncta): 8231.59

CN(C)[C@@H]1C(O)=C(C(N)=O)C(=O)[C@@]2(O)C(O)=C3C(=O)c4c(O)cccc4[C@@](C)(O)[C@H]3C[C@@H]12.Cl [Tetracycline (hydrochloride)]
Z repl 1: 0.657 | Z Repl 2: 0.47 | av Z [1]: 0.563 | av puncta (average of raw data 1 and 2): 26010.3 | raw data 1 (puncta): 34234.2 | raw data 2 (puncta): 17786.4

COc1cc(CCC(=O)CC(=O)CCc2ccc(O)c(OC)c2)ccc1O [Tetrahydrocurcumin]
Z repl 1: 0.298 | Z Repl 2: -0.72 | av Z [2]: -0.211 | av puncta [3]: 17498 | raw data 1 (raw puncta): 29921.4 | raw data 2 (raw puncta): 5074.48

COc1ccc(/C=C/C(=O)C(C)(C)C(=O)/C=C/c2ccc(OC)c(OC)c2)cc1OC [Tetramethylcurcumin]
Z repl 1: -1.086 | Z Repl 2: -0.943 | av Z [2]: -1.014 | av puncta (average of raw data 1 and 2): 8003.14 | raw data 1 (puncta): 13309.5 | raw data 2 (puncta): 2696.76

O=C(O[C@@H]1Cc2c(O)cc(O)cc2O[C@@H]1c1cc(O)c(O)c2c(=O)c(O)cc([C@H]3Oc4cc(O)cc(O)c4C[C@H]3O)cc12)c1cc(O)c(O)c(O)c1 [Theaflavin-3'-gallate]
Z repl 1: -2.15 | Z Repl 2: -1.186 | av puncta (average of raw data 1 and 2): 320.554 | raw data 1 (puncta): 542.499 | raw data 2 (puncta): 98.608

O=C(O[C@@H]1Cc2c(O)cc(O)cc2O[C@@H]1c1cc(O)c(=O)c2c(O)c(O)cc([C@H]3Oc4cc(O)cc(O)c4C[C@H]3O)c2c1)c1cc(O)c(O)c(O)c1 [Theaflavin-3-gallate]
Z repl 1: -2.035 | Z Repl 2: -1.192 | av Z [2]: -1.614 | av puncta (average of raw data 1 and 2): 972.721 | raw data 1 (puncta): 1914.49 | raw data 2 (puncta): 30.952

O=c1c(O)cc([C@H]2Oc3cc(O)cc(O)c3C[C@H]2O)cc2c([C@H]3Oc4cc(O)cc(O)c4C[C@H]3O)cc(O)c(O)c12 [Theaflavin]
Z repl 1: -0.67 | av Z [2]: -0.921 | av puncta (average of raw data 1 and 2): 9279.59 | raw data 1 (puncta): 18310.3 | raw data 2 (puncta): 248.899

O=C(O[C@@H]1[C@@H](O)[C@H](Oc2cc(O)c(C(=O)CCc3ccccc3)c(O)c2)O[C@@H]2COC(=O)c3cc(O)c(O)c(O)c3-c3c(cc(O)c(O)c3O)C(=O)O[C@@H]12)c1cc(O)c(O)c(O)c1 [Thonningianin A]
Z repl 1: -1.226 | Z Repl 2: -0.652 | av Z [2]: -0.939 | av puncta (average of raw data 1 and 2): 8713.6 | raw data 1 (puncta): 11629.9 | raw data 2 (puncta): 5797.27

CC(=O)Oc1ccc(/C=C/c2cc(OC(C)=O)cc(OC(C)=O)c2)cc1 [Triacetylresveratrol]
Z repl 1: -0.969 | Z Repl 2: -0.064 | av Z [2]: -0.517 | av puncta [3]: 13396.5 | raw data 1 (puncta): 14710.4 | raw data 2 (puncta): 12082.6

O=C(/C=C/c1ccc(O)cc1)OC[C@H]1O[C@@H](Oc2c(-c3ccc(O)cc3)oc3cc(O)cc(O)c3c2=O)[C@H](O)[C@@H](O)[C@@H]1O [Tribuloside]
Z repl 1: -0.731 | Z Repl 2: -0.145 | av Z [2]: -0.438 | av puncta [3]: 14393.7 | raw data 1 (raw puncta): 17568.8 | raw data 2 (raw puncta): 11218.6

Reference: article PMC11784839, “Monoaminergic neurotransmitters are bimodal effectors of tau aggregation” (Science Advances, 2025)
